Read-outs that look alike come from different tables or passages of the source. Strand notation (5' to 3'): a small letter for the sugar, then the base; units joined by * are phosphorothioate-linked, units joined directly phosphodiester-linked; [ ] holds rarer units or linkages, { } end groups; capitals alone tell only the bases. r = 2'-OH (RNA)

The text below walks through data of patent US20040053872A1, “New sequences” (priority 2000, published 2004).

Data set [1] has as its target T1, recombinant HIV-1 RT K103N/E478Q (Human immunodeficiency virus type 1 group M subtype B, UniProt P03366, E1077Q/K702N).
T1 construct: performed by recombinant HIV-1 RT:s with defined
The data set can be described thus: RT assay: inhibition of RNA dependent DNA polymerisation (modified Lenti RT assay). It counts as biochemical. The note with it: read-out: IC50 of indicated inhibitor in RT assay. The procedure: (§1) The flourimetric RT assay (Cavidi® Lenti RT activity kit), available from Cavidi Tech, Uppsala, Sweden, was used for the determination of RT activity. In short, poly(rA) covalently bound to the wells of a 96 well microtiter plate serves as template for the incorporation of 5-bromodeoxyuridine 5′-triphosphate (BrdUTP) during the reverse transcription step at 33° C. The amount of bromodeoxyuridine monophosphate (BrdUMP) incorporated into DNA is detected with an alkaline phosphatase (Ap) conjugated, anti-BrdU monoclonal antibody. An Ap substrate, 4-methylumbelliferyl phosphate, is finally used for fluorimetric product detection.
(§2) (i) Protocol for determination of inhibition of RNA dependent DNA polymerisation: The inhibition studies were performed in a modified Lenti RT assay. […] The enzyme reaction was initiated by addition of 100 μl aliquots of the enzyme/inhibitor mixture to each well of a microtiter plate containing 100 μl RT reaction mixture per well. The polymerase reaction was allowed to proceed for 3 hours at 33° C., whereupon the reaction was terminated by a wash of the plate. […] The amount of RT used was standardised to an activity corresponding to 90-130 pg (7-10×10^−16 mol) reference HIV-1 RT per well
(§3) The capacity of the indicated substances to inhibit the enzymes in a panel of recombinant HIV 1 subtype B RTs was studied according to “Protocol for determination of inhibition of RNA dependent DNA polymerisation” (protocol (i) above). The final nucleotide substrate (BrdUTP) concentration was 0.35 μM, and the primer (odT22) amount was 0.03 ng per well.

Data set [2] addresses T2, recombinant HIV-1 RT T215Y (Human immunodeficiency virus type 1 group M subtype B, UniProt P03366, T814Y).
T2 construct: performed by recombinant HIV-1 RT:s with defined
The description is as above. It counts as biochemical. As to conditions: read-out: IC50 of indicated inhibitor in RT assay. On the procedure: as §1, §2, §3

The test system of data set [3] is panel of recombinant HIV 1 subtype B RTs. The data set can be described thus: RT assay: inhibition of RNA dependent DNA polymerisation, whole RT panel. The class given is biochemical. As to conditions: for IC50: all RTs of the panel, summary of table 1, read-out: IC50, range over all RTs studied (reverse transcription). The procedure: as §1
(i) Protocol for determination of inhibition of RNA dependent DNA polymerisation: The inhibition studies were performed in a modified Lenti RT assay. […]
The final nucleotide substrate (BrdUTP) concentration was 0.35 μM, and the primer (odT22) amount was 0.03 ng per well.

For data set [4] the test system is unchanged. The data set can be described thus: DNAp assay: inhibition of second strand DNA synthesis, whole RT panel. As to conditions: all RTs of the panel; summary of table 2; read-out: IC50, range over all RTs studied (second strand DNA synthesis). It counts as biochemical. The text has this:
(§4) The flourimetric DNA-polymerase assay used is available from Cavidi Tech AB, Uppsala, Sweden. It is based on a short DNA primer analogous to a part of the tRNA^Lys3 sequence. The template is a single stranded deoxynucleotide template with part of the sequence complementary to the primer. The enzyme reaction is dependent on all four deoxynucleotide bases. The thymidine triphosphate is, however, replaced by BrdUTP. The amount of BrdUMP incorporated into DNA during the polymerase reaction is detected with an alkaline phosphatase (Ap) conjugated anti-BrdU monoclonal antibody. An Ap substrate, 4-methylumbelliferyl phosphate, is finally used for fluorimetric product detection.
(ii) Protocol for determination of inhibition of second strand synthesis on a variable DNA template: The inhibition studies were performed in a modified DNA polymerase assay. […] The enzyme reaction was initiated by addition of 75 μl aliquots of the enzyme/inhibitor mixture to each well of a microtiter plate containing 75 μl DNA polymerase reaction mixture per well.
The results, which are summarised in table 2, were rather similar to those found for inhibition of reverse transcription (table 1).

For data set [5], the target named is T3, recombinant HIV-1 RT, ref RT (HIV type B, clone BH 10) (Human immunodeficiency virus type 1 group M subtype B, UniProt P03366). It counts as biochemical. Details: performed by recombinant HIV-1 RT:s with defined. As to conditions: second strand DNA synthesis, preincubation 30 minutes at 33° C., 3 hours, read-out: IC50 of indicated inhibitor in DNAp assay.
Text: as §4
(ii) Protocol for determination of inhibition of second strand synthesis on a variable DNA template: The inhibition studies were performed in a modified DNA polymerase assay. The inhibitors were serially diluted in five steps, enzyme dilution was added and the enzyme/inhibitor mixtures were incubated for 30 minutes at 33° C. The enzyme reaction was initiated by addition of 75 μl aliquots of the enzyme/inhibitor mixture to each well of a microtiter plate containing 75 μl DNA polymerase reaction mixture per well. The polymerase reaction was allowed to proceed for 3 hours at 33° C. whereupon the reaction was terminated by a wash of the plate. […]

Data set [6] deals with T3, recombinant HIV-1 RT, ref RT (HIV type B, clone BH 10). Further details: performed by recombinant HIV-1 RT:s with defined. The note with it: immobilised primer/template, binding 90 min at 33° C., read-out: Inhibition of binding to template/primer (BIC50). The procedure: (iii) Protocol for RT binding inhibition (BIC) assay: The study was performed in a modified DNA polymerase assay. The inhibitors were serially diluted in five steps, enzyme dilution was added and the enzyme/inhibitor mixtures were incubated for 30 minutes at 33° C. Aliquots of the enzyme/inhibitor mixture were transferred to each well of a microtiter plate containing either immobilised primer, or primer/template. The enzyme was allowed to bind to the immobilised polymer for 90 min at 33° C. The amount of RT used was standardised to an activity corresponding to 40-60 pg (3.3-5.0×10^−16 mol) reference HIV-1 RT per well. The plates were then washed to remove unbound enzyme whereupon the amount of bound enzyme was determined by addition of the appropriate reaction solution for polymerisation (i e a reaction solution devoid of primer for studies of primer binding and a reaction solution devoid of both primer and template for studies of binding to primed template). The polymerase reaction was allowed to proceed for 3 hours at 33° C., whereupon the reaction was terminated by a wash of the plate.
The capacity of the indicated substances to inhibit the binding to primer or to primed DNA template of a panel of recombinant HIV 1 subtype B RTs was studied according to “Protocol for RT binding inhibition (BIC) assay” (protocol (iii) above).

[7] abbreviates: RT and inhibitor added directly to the assay mixture without preincubation.
[8] abbreviates: enzyme/inhibitor preincubated 30 minutes at 33° C., BrdUTP 0.35 μM, odT22 0.03 ng per well, 3 hours.

In the case of “substance 199: 35-mer RNA molecule having the sequence set out in SEQ ID NO:5; similar to SEQ ID NO:4 with some naturally occurring nucleotide derivatives (GCUCAGNCGGNAGAGCANCAGACUUUUAANCUGAN; RNA, backbone, methylation of C and the base at N not given here; naturally occurring modified nucleosides at n positions)”, the IC50 in data set [1] (setting [7]) is 9.8 nM; in data set [1] (setting [8]), 10 nM; in data set [2] (setting [7]) it was 9.3 nM; in data set [2] (setting [8]) it was 11 nM; in data set [3], 6 to 12 nM; in data set [4] it was 36 to 51 nM. The IC50 is 40 nM in data set [5] and 7 nM in data set [6]. Moreover, the “Results with inhibitor added directly to the RT reaction mixture compared with the standard procedure” value in data set [3] (alternative procedure without pre-incubation) was “not significantly different”.
Take “substance 198: 15-mer RNA phosphorothioate with the base sequence of tRNALys3 anticodon stem and loop, SEQ ID NO:7 (rC*rA*rG*rA*rC*rU*rU*rU*rU*rA*rA*rU*rC*rU*rG) [reference compound]”: the IC50 is 1100 nM in data set [1] (setting [8]); 340 nM in data set [2] (setting [8]); 340 to 1100 nM in data set [3]; 550 to 1000 nM in data set [4]; 550 nM in data set [5]; 900 nM in data set [6].
